Data reported in paper PMC6196658, “Activity of Thioallyl Compounds From Garlic Against Giardia duodenalis Trophozoites and in Experimental Giardiasis” (Frontiers in Cellular and Infection Microbiology, 2018).
Values after ≈ are worked out from the molar mass of the structure shown. Values joined by “and” are separate entries in the source; they are usually repeats but may differ in a detail not shown here. Identical values can stand only once. Like-named read-outs stand apart in the source and are kept apart here.

What was measured:
giardipain-1 = target: T1, giardipain-1 (Giardia intestinalis, UniProt P92132); assay: Inhibition of cytolytic effect of giardipain-1 on IEC6 cell monolayers; format: cell-based, Giardia duodenalis; conditions: 100 min
T1 construct: the 25 kDa band that contains the processed form of the cathepsin B-like protease named as giardipain-1; endogenous in cells
Method: (§1) Additional assays were carried out using the MLCs of TACs (without giardipain-1) previously obtained in trophozoite cultures to monitor their toxicity. These solutions were added to monolayers of the intestinal cell line IEC6 grown in 1 cm^2-microwells and incubated for 100 min at 37°C. After incubation, supernatants were discarded and monolayers were fixed with 2% paraformaldehyde in PBS. The effects of TACs and E64 on the cytolytic effect of giardipain-1 were evaluated by light microscopy using Nomarski optics (Axioskop 40, Zeiss).

[1] = tested on: cysteine protease activities in trophozoite lysates; assay: Proteolytic activity assay (gelatin zymogram); format: biochemical, Giardia duodenalis
Method: Trophozoite lysates were prepared as mentioned above except that cell lysis was carried out by sonication in 1.5 mL microcentrifuge tubes under ice bath using eight 15-s pulses at 80% amplitude with resting periods of 30 s (Ultrasonic Processor mod. CV19). Protein concentration was adjusted to 2 mg/mL and aliquoted in 25 μL fractions that were incubated for 30 min room temperature with 2–5 μL stock solutions of representative TACs (ALC, DADS, and AM). The reaction mixtures were diluted in Laemmli's sample buffer, loaded in wells of 10% acrylamide-02% gelatin slab gels and these were electrophoretically analyzed using 80 V/4°C. After this, gels were incubated in a solution of triton X-100 2.5% (v/v) in water for 1 h and washed 3 times with distilled water. Bands with proteolytic activity were detected as follows: gels were incubated in acetate buffer pH 5.5 with 1 mM DTT for 16 h at 37°C under constant stirring, washed 3 times with distilled water and stained with Coomassie blue (BioRad) for 2 h at 37°C under constant stirring. Finally, gels were washed with distilled water and incubated with a solution of 5% acetic acid/40% methanol (v/v). Gel images were documented with a UVP High Performance Ultraviolet Transilluminator and software Launch DocItLS.

[2] = tested on: G. duodenalis trophozoites; assay: In vitro susceptibility, subculture in liquid medium (SCLM); format: cell-based, Giardia duodenalis (WB strain); conditions: for MLC (mM) ±SD / IC50: SCLM, 24 h exposure; for IC50: read-out: IC50 (mM) ±SD
[3] = tested on: thiol groups exposed in G. duodenalis trophozoite proteins; assay: Thiol-modifying activity (inhibition of thiol-DTNB complexes); format: biochemical, Giardia duodenalis; conditions: 100 μg soluble trophozoite protein, 10 min 37°C, DTNB 412 nm
Method: The technique reported by Lawson and Wang ([1993]) was followed. In these assays trophozoites were collected from 60 mL flasks, washed 3 times with PBS and resuspended in 500 μL PBS containing a 1:12.5 dilution of a commercial mixture of protease inhibitors (Complete^TM, Roche Diagnostics GmbH, Indianapolis, IN, USA) and lysed by sonication at 12 microns/60% amplitude (Ultrasonic apparatus Sonic UVX1130PB). Soluble proteins were recovered by centrifugation at 15,400 × g for 30 min at 4°C and protein concentration was determined by the Bradford technique. These samples were adjusted to a concentration of 1 mg/mL. Reactions were carried out in 1.5 mL microcentrifuge tubes with a mixture of 100 μg protein (100 μL) and NaH2PO4 45 mM pH 7.0 mM (800 μL) to which increasing volumes of TACs stocks or a positive control with the thiol derivatizing agent MMTS prepared at 50 mM in the same buffer, were added and total volume was adjusted to 1 mL. After incubation for 10 min at 37°C, 100 μL of 1.5 mM dithionitrobenzoic acid (DTNB, Ellman's reagent) were added to each tube and following incubation for 10 min at room temperature the absorbances (yellow solutions) were recorded at 412 nm (Smart Spec 3000^TM, Bio-Rad, Hercules, CA, USA). A calibration curve was obtained using increasing volumes (0–100 μL) of 15.5 mM cysteine instead protein extracts and the maximal blocking concentration (MBC) corresponding to a complete absence of thiol-DTNB complexes produced by TACs were calculated using the least-square method (Microsoft Excel^TM).

IEC6 cell monolayers = assay: Toxicity of TACs on IEC6 cell monolayers; format: cell-based; conditions: 275 mM, without giardipain-1, 100 min
Method: as §1

[4] = tested on: G. duodenalis trophozoites; assay: ROS formation, H2DCFDA flow cytometry; format: cell-based, Giardia duodenalis
Method: (§2) The identification and quantitative determinations of trophozoites were carried out as follows: (a) apoptosis or necrosis were determined using anti-annexin V-fluorescein isothiocyanate (FITC) antibodies or PI as respective markers, (b) oxidative stress was determined by formation of reactive oxygen species (ROS) with the fluorescent ROS-complexing agent 5-(and 6)-carboxy 2′7′-dichlorodihydrofluorescein diacetate (H2DCFDA), and (c) determination of trophozoites cell cycle stages (G1, S, G2, and G2/M) after exposure to ALC or to a control drug (albendazole, ABZ) was carried out as previously described (Martínez-Espinosa et al., [2015]). In all these assays 20,000 cells per sample were recorded.

[5] = tested on: G. duodenalis trophozoites; assay: Cell cycle stages, PI flow cytometry; format: cell-based, Giardia duodenalis; conditions: 1.35 μM, 24 h
Method: as §2

[6] = tested on: G. duodenalis trophozoites; assay: Annexin V-PI flow cytometry (apoptosis/necrosis); format: cell-based, Giardia duodenalis; conditions: 0.48 μM, 24 h
Method: as §2

[7] = tested on: G. duodenalis trophozoites; parameters: method as in Argüello-García et al., 2004; conditions: positive control drug; ref Argüello-García et al., 2004; cited from earlier work
[8] = tested on: G. duodenalis trophozoites; assay: Efficacy in experimental giardiasis; conditions: read day 13
Method: Eighty male Mongolian gerbils (M. unguiculatus) 6–10 weeks old, weighted 45–60 g and sentinel-checked gerbils free of intestinal parasites were kept in individual cages and distributed in 12 groups of 6 animals per treatment and experimental infections were performed as described elsewhere (Argüello-García and Ortega-Pierres, [1997]). In brief, animals were inoculated intragastrically with 1 × 10^6 G. duodenalis trophozoites in 500 μl sterile PBS per os using gavage under ether anesthesia. Control animals received 500 μl sterile PBS each. […] As additional control, one group of animals received MTZ (38.4 mg/kg at single or double dose). […] Treatment efficacy was evaluated by determining the presence or absence of trophozoites in intestinal contents of control and treated gerbils at day 13 post-infection. For this, gerbils were euthanized by an intraperitoneal injection of pentobarbital at a dose of 150 mg/kg to minimize stress and to reduce suffering, then a 10 cm-long section of intestine (from stomach ending, equivalent to nearly the entire small intestine) was excised after laparotomy, and it was longitudinally opened and rinsed in 20 mL PBS at 4°C for 20 min under shaking (720 rpm, Heidolph^TM rotatory shaker) to determine trophozoites number after parasite detachment from microvilli. Supernatant was collected and centrifuged at 750 × g for 10 min at 4°C, cell pellet was resuspended in 1 mL PBS and trophozoites were counted using a haemocytometer. Gerbils were scored as cured if no trophozoites were recovered from infected animals.

T1 sequence (P92132 75-300): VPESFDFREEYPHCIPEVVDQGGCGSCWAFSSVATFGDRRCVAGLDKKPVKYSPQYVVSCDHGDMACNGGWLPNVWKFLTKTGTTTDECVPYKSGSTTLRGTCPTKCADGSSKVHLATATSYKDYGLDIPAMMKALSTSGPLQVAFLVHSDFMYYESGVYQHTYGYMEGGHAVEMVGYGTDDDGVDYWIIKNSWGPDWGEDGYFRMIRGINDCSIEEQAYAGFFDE

C=CCS [AM, allyl mercaptan]
effect on giardipain-1 cytopathic damage in IEC6 monolayers (giardipain-1; 514 mM pre-incubated 30 min with giardipain-1 16 μg/mL): noticeably blocked these effects | effect on proteolytic bands in zymogram ([1]; bands of 75, 60 and 25 kDa, concentration not given): significant increase of activity | MLC (mM) ±SD [2]: 3.06 mM (≈ 227 µg/mL) | MLC (mM) ±SD ([2]; listed as Allyl Mercaptan (AM)): 3.06 ± 0.7 mM (≈ 227 µg/mL) | IC50 [2]: 0.83 ± 0.2 mM

C=CCSC [AMS, allyl methyl sulfide]
MBC (maximal blocking concentration) ± SD [3]: 845.9 mmol/mg protein and 845.96 ± 78.1 mmol/mg protein | MLC (mM) ±SD [2]: 74.28 mM (≈ 6550 µg/mL) | MLC (mM) ±SD ([2]; listed as Allyl Methyl Sulfide (AMS)): 74.28 ± 12.3 mM (≈ 6550 µg/mL) | IC50 [2]: 40.3 ± 3.5 mM

C=CCSSCC=C [DADS, diallyl disulphide]
effect on giardipain-1 cytopathic damage in IEC6 monolayers (giardipain-1; 275 mM pre-incubated 30 min with giardipain-1 16 μg/mL): reduced the frequency of cells displaying apoptotic damage | effect on proteolytic bands in zymogram ([1]; 275 mM): could diminish similar activities except for the one at 60 kDa | MBC (maximal blocking concentration) ± SD [3]: > 200 mmol/mg protein and 224.58 ± 18.8 mmol/mg protein | MLC (mM) ±SD [2]: 2.66 mM (≈ 389 µg/mL) | MLC (mM) ±SD ([2]; listed as Diallyl Disulfide (DADS)): 2.66 ± 0.8 mM (≈ 389 µg/mL) | IC50 [2]: 1.4 ± 0.6 mM | toxicity to IEC6 cell monolayers (IEC6 cell monolayers): affected some cells

C=CCSSSCC=C [DATS, diallyl trisulfide]
MBC (maximal blocking concentration) ± SD [3]: > 200 mmol/mg protein and 201.61 ± 33.4 mmol/mg protein | MLC (mM) ±SD [2]: 1.35 ± 0.18 mM (≈ 241 µg/mL)

S-allyl-L-cysteine [SAC]
MBC (maximal blocking concentration) ± SD [3]: 1260.9 mmol/mg protein and 1260.99 ± 125.6 mmol/mg protein | MLC (mM) ±SD [2]: 69.1 mM | MLC (mM) ±SD ([2]; listed as S-Allyl Cysteine (SAC)): 69.10 ± 13.1 mM | IC50 [2]: 40.8 ± 6.3 mM

CC(C)(C)OO [TBHP, tert-butyl hydroperoxide]
cells positive for ROS (total) ([4]; TBHP control, 400 μM per Figure 9, 24 h): 17.1%

CCCSc1ccc2nc(NC(=O)OC)[nH]c2c1 [ABZ, albendazole]
cells at G2 phase [5]: 69.9% | cells at S phase [5]: 22.1% | R1 cells positive for necrosis (PI+) [6]: 5% | cells in apoptosis (early plus late) [6]: 41.0% | cells positive for ROS (total) ([4]; ABZ control, 0.48 μM per Figure 9, 24 h): 33.85%

CSS(C)(=O)=O [MMTS, methyl methanethiosulfonate, reference compound]
MBC (maximal blocking concentration) ± SD [3]: 55.45 ± 3.2 mmol/mg protein

Cc1ncc([N+](=O)[O-])n1CCO [MTZ, metronidazole, reference compound]
IC50 [7]: 0.003 mM | MLC [7]: 0.0059 mM (≈ 1.01 µg/mL) | cure rate (gerbils without trophozoites) ([8]; 36 mg/kg at twice dose): 5 out of 6 | cure rate (gerbils without trophozoites) ([8]; 36 mg/kg single dose): 3 out of 6 | inhibition at 3 µM ([2]; Giardia duodenalis, 3.0 μM, 24 h, positive control, read-out: inhibition of trophozoite growth): 45 to 55% | inhibition at 5.9 µM ([2]; Giardia duodenalis, 5.9 μM, 24 h, positive control, read-out: inhibition of trophozoite growth): > 95%

C=CCSCC=C [DAS, diallyl sulfide]
MBC (maximal blocking concentration) ± SD [3]: 351.3 mmol/mg protein and 351.34 ± 78.9 mmol/mg protein | IC50 ([2]; Giardia duodenalis): 14.5 ± 2.3 mM | MLC (mM) ±SD [2]: 23.71 mM (≈ 2710 µg/mL) | MLC (mM) ±SD ([2]; listed as Diallyl Sulfide (DAS)): 23.71 ± 6.0 mM (≈ 2710 µg/mL)

O=C([O-])c1cc[c]([Hg][OH])cc1.[Na+] [pHMB, sodium p-hydroxymercuribenzoate, reference compound]
effect on proteolytic bands in zymogram ([1]; 10 mM): full inhibition of all proteolytic bands

CC(C)C[C@H](NC(=O)[C@H]1O[C@@H]1C(=O)O)C(=O)NCCCCN=C(N)N [E64, reference compound]
effect on giardipain-1 cytopathic damage in IEC6 monolayers (giardipain-1; 20 μM pre-incubated 30 min with giardipain-1 16 μg/mL): efficiently inhibited the giardipain-1 induced damage | effect on proteolytic bands in zymogram ([1]; 20 μM): selective inhibition on the 25 kDa band
